Patent US9271953B2, “Methods for correction of organ dysfunction” (priority 2013, dated 2016)
“Also recorded” adds a separate entry of the source.

Assays:
[1] = tested on: patients with connective tissue disorders and/or autonomic dysfunction; assay: Patient studies / case studies with the oral compound; type: in vivo, human; conditions: patients with organ malfunction secondary to poor vagus nerve function
Procedure: The composition and method of use of the present invention is also unique because it corrects for these numerous causes of dysfunction and includes ingredients in the quantities and form required to work around the genetic, vascular, and/or co-morbid components involved. IBS/gastroparesis/constipation was initially targeted. In patient studies, a response to medication (a bowel movement) occurred within 2-12 hours, without exception. Patients were identified with a mix of co-morbid conditions including chronic fatigue syndrome, fibromyalgia, joint hypermobility and autonomic dysfunction.
The present composition was provided to a number of patients having certain diagnosed diseases, as summarized in Table 1 above and suffering from a variety of medical conditions or symptoms associated with those diseases, again, as summarized above.

[2] = tested on: post-ganglionic nicotinic acetylcholine receptors; assay: Oral single agents in patients with damaged pre-ganglionic vagus nerve: organ function; type: in vivo, human
Text: In one embodiment of the invention, transdermal (topical) application of nicotine, applied near the lower right-hand corner of the abdomen stimulates the post-ganglionic nicotinic acetylcholinergic receptor controlling the ileocecal valve, for example, allowing the valve to open. Oral nicotine, however, is ineffective at stimulating the post-ganglionic nicotinic acetylcholinergic nerves in the abdomen, yet it exposes the patient to the direct (and negative) effect on the cerebellum.^38 In numerous patients tested, oral physostigmine or Huperzine A (both inhibitors of acetylcholinesterase, and thus indirect stimulators of both nicotinic and muscarinic acetylcholine receptors) were not effective in stimulating organ function when the pre-ganglionic portion of the vagus nerve was damaged. It is clear that in addition to inhibitors of acetylcholinesterase, other ingredients are necessary to stimulate organ function in this patient population. […] It was only through extensive testing that the inventor was able to discover the proper range of oral ingredients which were effective in stimulating these post-ganglionic nerves.

[3] = in vivo; cited from earlier work
[4] = tested on: post-ganglionic nicotinic acetylcholine receptors
Text: Nicotine is a powerful nicotinic agonist found in the leaves of the tobacco plant (Nicotiana tabacum).

IGF-1 = IGF-1 levels in Patient 1; type: in vivo, human; conditions: 2 units/day growth hormone, before compound
Text: Not intending to be bound by theory, and in no way a limitation of the present invention, the invention (excluding nicotine) can be used to stimulate production of human growth hormone, often found to be low in chronic pain syndromes, including disorders of connective tissue, “POTS”, “Hyperadrenergic POTS” and fibromyalgia. Rather than treating the patients with exogenous growth hormone, the present invention instead treats the source of the low growth hormone levels (as measured via IGF-1). Growth hormone levels can then return to normal and dysregulation of the hypothalamic-pituitary-adrenal axis is normalized. […]
Patient 1: Diagnoses: joint hypermobility (judged by the Beighton Scale), autonomic dysfunction (patient failed the Tilt Table Test of autonomic function) and visual and auditory hallucinations, hypothermia. […] Their liver enzymes and kidney function began to show abnormal readings, and pain at the site of the ileocecal valve began to occur. […]

CC(=O)O[C@H](CC(=O)[O-])C[N+](C)(C)C [Acetyl-L-Carnitine]
organ function when Acetyl-L-Carnitine was added to the compound [1]: invariably achieved better organ function

C/C=C1\[C@H]2C=C(C)C[C@]1(N)c1ccc(=O)[nH]c1C2 [Huperzine A]
response to medication ([2]; Patient 2, prescribed for mental fatigue): no response | stimulating organ function when the pre-ganglionic portion of the vagus nerve was damaged ([2]; oral, numerous patients tested): not effective

CN1CCCC1c1cccnc1 (centres unmarked) [nicotine, Nicotine]
lethal dosage [3]: 60 mg | opening the ileocecal valve, arresting gastroparesis/chronic constipation ([2]; oral doses of nicotine): ineffective | stimulating the post-ganglionic nicotinic acetylcholinergic nerves/receptors (organ function) ([2]; oral nicotine): ineffective; also recorded: not effective | skin side effects ([4]; Patient 1, 7 g transdermal nicotine): intractable itching, redness, and skin welting | ileocecal valve opening ([4]; Patient 1, 7 g transdermal nicotine near the ileocecal valve): opened the valve overnight | reversal of chronic constipation, gastroparesis, dysmotility, ileocecal valve and Sphincter of Oddi dysfunction: time ([4]; transdermal 3-21 mg, lower right-hand quadrant of abdomen): usually within hours | opening of the ileocecal valve ([4]; transdermal 3-21 mg, patients with poor vagus nerve function, valve not physically damaged): never failed to open the ileocecal valve

growth hormone: exogenous growth hormone, 2 units/day
IGF-1 levels raised to the upper normal range (IGF-1): which it did
